From PubChem BioAssay (NCI)
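Where inhibition never reached the appropriate level, the endpoint shown equals the highest concentration tested. Otherwise, values were interpolated linearly from a five-concentration, 48-hour dose response in 96-well plates. At the TGI there is no net growth.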

What was measured:
Assay in all cases: growth of human tumour cells (NCI), 48 h
786-0 renal = tested on: 786-0 renal
A498 renal = tested on: A498 renal
A549 NSCLC = tested on: A549 NSCLC
ACHN renal = tested on: ACHN renal
BT-549 breast = tested on: BT-549 breast
CAKI-1 renal = tested on: CAKI-1 renal
CCRF-CEM leukemia = tested on: CCRF-CEM leukemia
COLO 205 colon = tested on: COLO 205 colon
DU-145 prostate = tested on: DU-145 prostate
EKVX NSCLC = tested on: EKVX NSCLC
HCC-2998 colon = tested on: HCC-2998 colon
HCT-116 colon = tested on: HCT-116 colon
HCT-15 colon = tested on: HCT-15 colon
HL-60(TB) leukemia = tested on: HL-60(TB) leukemia
HOP-62 NSCLC = tested on: HOP-62 NSCLC
HOP-92 NSCLC = tested on: HOP-92 NSCLC
HS 578T breast = tested on: HS 578T breast
HT29 colon = tested on: HT29 colon
IGROV1 ovarian = tested on: IGROV1 ovarian
KM12 colon = tested on: KM12 colon
LOX IMVI melanoma = tested on: LOX IMVI melanoma
M14 melanoma = tested on: M14 melanoma
MALME-3M melanoma = tested on: MALME-3M melanoma
MDA-MB-231 breast = tested on: MDA-MB-231 breast
MDA-MB-435 = tested on: MDA-MB-435
MDA-N = tested on: MDA-N
MOLT-4 leukemia = tested on: MOLT-4 leukemia
NCI-H226 lung = tested on: NCI-H226 lung
NCI-H23 lung = tested on: NCI-H23 lung
NCI-H460 lung = tested on: NCI-H460 lung
NCI-H522 lung = tested on: NCI-H522 lung
NCI/ADR-RES ovarian = tested on: NCI/ADR-RES ovarian
OVCAR-3 ovarian = tested on: OVCAR-3 ovarian
OVCAR-4 ovarian = tested on: OVCAR-4 ovarian
OVCAR-5 ovarian = tested on: OVCAR-5 ovarian
OVCAR-8 ovarian = tested on: OVCAR-8 ovarian
PC-3 prostate = tested on: PC-3 prostate
RPMI-8226 leukemia = tested on: RPMI-8226 leukemia
RXF 393 renal = tested on: RXF 393 renal
SF-268 CNS = tested on: SF-268 CNS
SF-295 CNS = tested on: SF-295 CNS
SF-539 CNS = tested on: SF-539 CNS
SK-MEL-2 melanoma = tested on: SK-MEL-2 melanoma
SK-MEL-28 melanoma = tested on: SK-MEL-28 melanoma
SK-MEL-5 melanoma = tested on: SK-MEL-5 melanoma
SK-OV-3 ovarian = tested on: SK-OV-3 ovarian
SN12C renal = tested on: SN12C renal
SNB-19 CNS = tested on: SNB-19 CNS
SNB-75 CNS = tested on: SNB-75 CNS
SR leukemia = tested on: SR leukemia
SW-620 colon = tested on: SW-620 colon
T-47D breast = tested on: T-47D breast
TK-10 renal = tested on: TK-10 renal
U251 CNS = tested on: U251 CNS
UACC-257 melanoma = tested on: UACC-257 melanoma
UACC-62 melanoma = tested on: UACC-62 melanoma
UO-31 renal = tested on: UO-31 renal

O=C(NCCN1CCCC1)c1cn2c(ccc3sc4ccccc4c(=O)c32)n1
TGI (786-0 renal): 2.78 µM | TGI (A498 renal): 33.1 µM | TGI (A549 NSCLC): 24.5 µM | TGI (ACHN renal): 21.2 µM | TGI (BT-549 breast): 35.6 µM | TGI (CAKI-1 renal): 24.2 µM | TGI (CCRF-CEM leukemia): 4.53 µM | TGI (COLO 205 colon): 26.7 µM | TGI (DU-145 prostate): 26.3 µM | TGI (EKVX NSCLC): 34.8 µM | TGI (HCC-2998 colon): 18.6 µM | TGI (HCT-116 colon): 8.57 µM | TGI (HCT-15 colon): 24.4 µM | TGI (HL-60(TB) leukemia): 26.8 µM | TGI (HOP-62 NSCLC): 25.8 µM | TGI (HOP-92 NSCLC): 30.1 µM | TGI (HS 578T breast): 33.3 µM | TGI (HT29 colon): 7.67 µM | TGI (IGROV1 ovarian): 25 µM | TGI (KM12 colon): 37.5 µM | TGI (LOX IMVI melanoma): 3.4 µM | TGI (M14 melanoma): 29.2 µM | TGI (MALME-3M melanoma): 31.8 µM | TGI (MDA-MB-231 breast): 7.52 µM | TGI (MDA-MB-435): > 56.6 µM | TGI (MDA-N): 33.1 µM | TGI (MOLT-4 leukemia): 7.42 µM | TGI (NCI-H226 lung): 38.1 µM | TGI (NCI-H23 lung): 32.4 µM | TGI (NCI-H460 lung): 18.6 µM | TGI (NCI-H522 lung): 27.4 µM | TGI (NCI/ADR-RES ovarian): 31.2 µM | TGI (OVCAR-3 ovarian): 29.1 µM | TGI (OVCAR-4 ovarian): 26.3 µM | TGI (OVCAR-5 ovarian): 24.2 µM | TGI (OVCAR-8 ovarian): 9.82 µM | TGI (PC-3 prostate): 27.4 µM | TGI (RPMI-8226 leukemia): 5.7 µM | TGI (RXF 393 renal): 24.6 µM | TGI (SF-268 CNS): 30.1 µM | TGI (SF-295 CNS): 27.1 µM | TGI (SF-539 CNS): 30.2 µM | TGI (SK-MEL-2 melanoma): 36 µM | TGI (SK-MEL-28 melanoma): 33.8 µM | TGI (SK-MEL-5 melanoma): 31.2 µM | TGI (SK-OV-3 ovarian): 30 µM | TGI (SN12C renal): 26.9 µM | TGI (SNB-19 CNS): 31.2 µM | TGI (SNB-75 CNS): 34.1 µM | TGI (SR leukemia): 8.79 µM | TGI (SW-620 colon): 3.32 µM | TGI (T-47D breast): 38.1 µM | TGI (TK-10 renal): 25.7 µM | TGI (U251 CNS): > 51.7 µM | TGI (UACC-257 melanoma): 35 µM | TGI (UACC-62 melanoma): 31.3 µM | TGI (UO-31 renal): 26.4 µM
